Assay results taken from patent US20230346775A1, “CANCER TREATMENT WITH TLR AGONIST” (BIRDIE BIOPHARMACEUTICALS, INC., priority 2020, published 2023).

What was measured:
Assay type in all cases: in vivo, human
[1] = tested on: unresectable or metastatic solid tumors; experiment: Efficacy of Compound A salt monotherapy, best response by irRECIST; conditions: for patients with clinical benefit (irPR or irSD>18 weeks): 16 patients
Experimental: (§1) A treatment cycle is 21 days with 3 weekly infusions on days 1, 8, and 15.
Response was defined by best overall response—immune-related partial response (irPR), immune-related stable disease (irSD) with study duration over or under 18 weeks, and unconfirmed immune-related progressive disease (uirPD). Clinical benefit was defined as either partial response (irPR) or irSD >18 weeks. IP-10 cytokine induction levels of 32 patients evaluable for efficacy, were analyzed with respect to dosage in Cycle 1.

[2] = Clinical benefit (RECIST 1.1) versus AUC/Cmax, Compound A in combination with atezolizumab; conditions: human, plasma, combination with anti-PD-L1 mAb (atezolizumab)
From the text: (§2) Clinical benefit was defined as radiographic complete response, partial response or stable disease >18 weeks based on Response Evaluation Criteria in Solid Tumors (RECIST) version 1.1.

advanced solid cancers [3] = experiment: as above; conditions: combination with atezolizumab
From the text: as §2

[4] = Phase 1 safety, drug-related adverse events, Compound A monotherapy
From the text: Toxicities and adverse events are sometimes graded according to a 5-point scale. A grade 1 or mild toxicity is asymptomatic or induces only mild symptoms; may be characterized by clinical or diagnostic observations only; and intervention is not indicated. A grade 2 or moderate toxicity may impair activities of daily living (such as preparing meals, shopping, managing money, using the telephone, etc.) but only minimal, local, or non-invasive interventions are indicated. Grade 3 toxicities are medically significant but not immediately life-threatening; hospitalization or prolongation of hospitalization is indicated; activities of daily living related to self-care (such as bathing, dressing and undressing, feeding oneself, using the toilet, taking medications, and not being bedridden) may be impaired. Grade 4 toxicities are life-threatening and urgent intervention is indicated. Grade 5 toxicity produces an adverse event-related death.
as §1
Most common drug-related AE's were associated with immune activation.

[5] = Plasma IP-10 induction from baseline (MSD cytokine assay); conditions: human, plasma, intravenous; read-out: minimum Cmax required to induce enough IP-10 that results in clinical benefit
Experimental: (§3) Pharmacodynamic analysis of Compound A included cytokine quantification and whole-blood RNA transcriptional profiling. Collected plasma samples were quantified for cytokine biomarkers implicated in inflammatory responses, immune system regulation, and other biological processes. Assays for cytokine quantification were performed by Frontage Laboratories, Inc. utilizing Meso Scale Discovery (MSD) V-PLEX and U-PLEX plates pre-coated with capture antibodies for IL-5, IL-17A, IFN-γ, IL-2, IL-6, IL-8, IL-10, IL-12p70, TNF-α, IFN-α, IFN-β, and IP-10. Plasma samples were added directly to the plate to allow the analytes in the samples to bind to the capture antibodies. Electrochemiluminiscent label (MSD SOLFO-TAG™)-conjugated detection antibodies were then added to visualize the plates by a MSD plate reader. The luminescence intensity was measured to quantify the amount of captured analytes (or cytokine levels) in each sample. […] Plasma samples were collected at Cycle 1, Cycle 3, and Cycle 6. Of the cytokines quantified, IP-10, IFN-γ, IL-6, IL-8, IL-10, and TNF-α had detectable levels. […] The greater peak cytokine level from either Cycle 1 Days 1 or 8 were selected for the analysis to be inclusive of all subjects. […] Response was defined by best overall response—immune-related partial response (irPR), immune-related stable disease (irSD) with study duration over or under 18 weeks, and unconfirmed immune-related progressive disease (uirPD). Clinical benefit was defined as either partial response (irPR) or irSD >18 weeks. […] For example, patient A dosed with dose level 2 with slower metabolism may have higher AUC and/or Cmax than patient B who was dosed with dose level 3, as a result patient A may produce higher level of IP-10 induction from baseline.

IP-10 = experiment: as above; conditions: for mean IP-10 induction level from baseline: 16 patients, Cycle 1
Experimental: as §3

IFN-γ = experiment: Plasma IFN-γ induction from baseline (MSD cytokine assay); conditions: monotherapy, data not shown
Experimental: Pharmacodynamic analysis of Compound A included cytokine quantification and whole-blood RNA transcriptional profiling.
Collected plasma samples were quantified for cytokine biomarkers implicated in inflammatory responses, immune system regulation, and other biological processes. Assays for cytokine quantification were performed by Frontage Laboratories, Inc. utilizing Meso Scale Discovery (MSD) V-PLEX and U-PLEX plates pre-coated with capture antibodies for IL-5, IL-17A, IFN-γ, IL-2, IL-6, IL-8, IL-10, IL-12p70, TNF-α, IFN-α, IFN-β, and IP-10. Plasma samples were added directly to the plate to allow the analytes in the samples to bind to the capture antibodies. Electrochemiluminiscent label (MSD SOLFO-TAG™)-conjugated detection antibodies were then added to visualize the plates by a MSD plate reader. The luminescence intensity was measured to quantify the amount of captured analytes (or cytokine levels) in each sample.
Plasma samples were collected at Cycle 1, Cycle 3, and Cycle 6. Of the cytokines quantified, IP-10, IFN-γ, IL-6, IL-8, IL-10, and TNF-α had detectable levels. […] The greater peak cytokine level from either Cycle 1 Days 1 or 8 were selected for the analysis to be inclusive of all subjects.

[6] = Clinical benefit (RECIST 1.1) versus AUC/Cmax, Compound A monotherapy; conditions: human, plasma, intravenous, Cmax of Compound A free base associated with greater likelihood of clinical benefit
From the text: as §2

advanced solid cancers [7] = experiment: as above
From the text: as §2

[8] = Clinical benefit (RECIST 1.1) versus AUC/Cmax, Compound A in combination with pembrolizumab; conditions: human, combination with anti-PD-1 mAb (pembrolizumab)
From the text: as §2

advanced solid cancers [9] = experiment: as above; conditions: combination with pembrolizumab
From the text: as §2

[10] = Phase 1 pharmacokinetics: Compound A free base in plasma after intravenous infusion
From the text: as §1
The Mosteller Formula was used: BSA=√height (cm)×weight (kg)/3600.

[11] = IP-10 induction, >5-fold increase (n = 17)
[12] = No IP-10 induction, <5-fold increase (n = 19)

## CCOCc1nc2c(N)nc3ccccc3c2n1CC(C)(C)O [Compound A, 1-[4-amino-2-(ethoxymethyl)imidazo[4,5-c]quinolin-1-yl]-2-methylpropan-2-ol]
[1]; high AUC group (above 2.09 ng/mL*Day)
  patients with clinical benefit (irPR or irSD>18 weeks): 7 patients
[1]; high Cmax group (above 9.4 ng/mL)
  patients with clinical benefit (irPR or irSD>18 weeks): 7 patients
[1]; irRECIST, best response
  partial response [PR], number of subjects: 2
  stable disease [SD], number of subjects: 18
[1]; irRECIST, partial response + stable disease
  disease control rate: 63%
[1]; low AUC group (below 2.09 ng/mL*Day)
  patients with clinical benefit (irPR or irSD>18 weeks): two
[1]; low Cmax group (below 9.4 ng/mL)
  patients with clinical benefit (irPR or irSD>18 weeks): two
[1]; monotherapy
  progressive disease (PD) as best response: 38%
  progressive disease (PD) as best response, number: 12 subjects
  subjects with prolonged disease control (study duration >18 weeks): 22%
  subjects with prolonged disease control (study duration >18 weeks), number: 7 subjects
[1]; one subject on monotherapy
  longest study duration: 68 weeks
[2]; intravenous
  Cmax: ≥ 10.5 ng/mL
[2]
  Cmax: 10.5 ng/mL
Advanced solid cancers [3]; high AUC group (above 2.14 ng/mL*Day), 10 patients
  patients with clinical benefit: 50%
Advanced solid cancers [3]; high Cmax group (above 10.5 ng/mL), 10 patients
  patients with clinical benefit: 40%
Advanced solid cancers [3]; low AUC group (below 2.14 ng/mL*Day), 15 patients
  patients with clinical benefit: 20%
Advanced solid cancers [3]; low Cmax group (below 10.5 ng/mL), 15 patients
  patients with clinical benefit: 27%
[4]; 0.30-0.90 mg/m^2
  dose dependence of toxicity: no apparent dose-dependent increase in toxicity
[4]; [11]
  Grade 1 AE, subjects (%): 4 (24%)
  Grade 2 AE, subjects (%): 7 (41%)
  Grade 3 AE, subjects (%): 2 (12%)
  No AE, subjects (%): 4 (24%)
[4]; [12]
  Grade 1 AE, subjects (%): 6 (32%)
  Grade 2 AE, subjects (%): 5 (26%)
  Grade 3 AE, subjects (%): 1 (5%)
  No AE, subjects (%): 7 (37%)
[4]; monotherapy, 36 subjects
  Grade 4 or 5 adverse events: no Grade 4 or 5 adverse events
  overall tolerability: well-tolerated
[4]; monotherapy, of 36 subjects
  subjects without any drug-related AE: 31%
  subjects without any drug-related AE, number: 11
[5]
  Cmax: ≥ 9.4 ng/mL
IP-10; high AUC group (AUC above 2.09 ng/mL*Day)
  mean IP-10 induction level from baseline: 27.2 fold
IP-10; high Cmax group (Cmax above 9.4 ng/mL)
  mean IP-10 induction level from baseline: 31.9 fold
IP-10; low AUC group (AUC below 2.09 ng/mL*Day)
  mean IP-10 induction level from baseline: 3.68 fold
IP-10; low Cmax group (Cmax below 9.4 ng/mL)
  mean IP-10 induction level from baseline: 5.09 fold
IP-10; monotherapy, FIG. 2A
  effect on blood IP-10 levels: significantly increased
IFN-γ
  effect on blood IFN-γ levels: significantly increased
[6]
  Cmax: ≥ 8.38 ng/mL
Advanced solid cancers [7]; high AUC group (above 3.42 ng/mL*Day), 14 patients
  patients with clinical benefit: 50%
Advanced solid cancers [7]; high Cmax group (above 8.38 ng/mL), 15 patients
  patients with clinical benefit: 47%
Advanced solid cancers [7]; low AUC group (below 3.42 ng/mL*Day), 18 patients
  patients with clinical benefit: 11%
Advanced solid cancers [7]; low Cmax group (below 8.38 ng/mL), 17 patients
  patients with clinical benefit: 12%
[8]; in vivo, intravenous
  Cmax: ≥ 7.65 ng/mL
[8]; plasma
  Cmax: 7.6 ng/mL
Advanced solid cancers [9]; high AUC group (above 2.19 ng/mL*Day), 15 patients
  patients with clinical benefit: 47%
Advanced solid cancers [9]; high Cmax group (above 7.65 ng/mL), 16 patients
  patients with clinical benefit: 44%
Advanced solid cancers [9]; low AUC group (below 2.19 ng/mL*Day), 11 patients
  patients with clinical benefit: 27%
Advanced solid cancers [9]; low Cmax group (below 7.65 ng/mL), 10 patients
  patients with clinical benefit: 30%
[10]; five escalating dosages 0.30-0.90 mg/m^2 intravenously
  Compound A free base exposure versus dose: dose-dependent increase
[10]; human, plasma, iv
  half-life: ~4 h
